Experimental data from ChEMBL document CHEMBL3885881, “DrugMatrix”.

Species: Rattus norvegicus
Experiment: DrugMatrix - Regimen: Daily Repeat
Type: toxicity, organism-based, Sprague-Dawley
Design: regimen Daily Repeat, gender Male, age 6-8 weeks
Conditions: in vivo, po, route oral GAVAGE, vehicle 100 % WATER; for ALANINE AMINOTRANSFERASE / ALBUMIN / ALKALINE PHOSPHATASE / ASPARTATE AMINOTRANSFERASE / BLOOD UREA NITROGEN / CARBON DIOXIDE / CHLORIDE / CHOLESTEROL / CREATINE PHOSPHOKINASE / CREATININE / GLUCOSE / LACTATE DEHYDROGENASE / LIPASE / PHOSPHORUS / POTASSIUM / SODIUM / TOTAL BILIRUBIN / TOTAL PROTEIN / URIC ACID: tissue Plasma
[1] = 850 mg/kg, 72 h, tissue Blood, dose level M1, time 3 day
[2] = 850 mg/kg, 72 h, dose level M1, time 3 day
[3] = 850 mg/kg, 120 h, tissue Blood, dose level M1, time 5 day
[4] = 850 mg/kg, 120 h, dose level M1, time 5 day

CCCC(CCC)C(=O)O [VALPROIC ACID]
ABSOLUTE LYMPHOCYTE [1]: 8722.33 CELLS/uL
ABSOLUTE MONOCYTE [1]: 267.67 CELLS/uL
ABSOLUTE SEGMENTED NEUTROPHIL [1]: 836 CELLS/uL
BASOPHIL [1]: 0%
EOSINOPHIL [1]: 0.33%
ERYTHROCYTE COUNT [1]: 5.4 x10E6/uL
HEMATOCRIT [1]: 35.27%
LEUKOCYTE COUNT [1]: 9.87 x10E3/uL
LYMPHOCYTE [1]: 89%
MEAN CORPUSCULAR HEMOGLOBIN [1]: 25.37 pg
MEAN CORPUSCULAR HEMOGLOBIN CONCENTRATION [1]: 38.73 G/DL
MEAN CORPUSCULAR VOLUME [1]: 65.5 fL
MONOCYTE [1]: 2.67%
NEUTROPHIL [1]: 8%
NUCLEATED RED BLOOD CELLS [1]: 0 /100WBC
PLATELET COUNT [1]: 1024 x10E3/uL
ALANINE AMINOTRANSFERASE [2]: 50 u/L
ALBUMIN [2]: 3.97 G/DL
ALKALINE PHOSPHATASE [2]: 196.67 u/L
ASPARTATE AMINOTRANSFERASE [2]: 87.67 u/L
BLOOD UREA NITROGEN [2]: 13 mg/dL
CARBON DIOXIDE [2]: 29 mmol/L
CHLORIDE [2]: 99.33 MEQ/L
CHOLESTEROL [2]: 57.67 mg/dL
CREATINE PHOSPHOKINASE [2]: 134.67 u/L
CREATININE [2]: 0.11 mg/dL
GLUCOSE [2]: 145.67 mg/dL
LACTATE DEHYDROGENASE [2]: 142.67 u/L
LIPASE [2]: 9.33 u/L
PHOSPHORUS [2]: 11.37 mg/dL
POTASSIUM [2]: 6.32 MEQ/L
SODIUM [2]: 143.5 MEQ/L
TOTAL BILIRUBIN [2]: 0.23 mg/dL
TOTAL PROTEIN [2]: 5.33 G/DL
URIC ACID [2]: 1.57 mg/dL
ABSOLUTE BASOPHIL [3]: 0 CELLS/uL
ABSOLUTE EOSINOPHIL [3]: 50 CELLS/uL
ABSOLUTE LYMPHOCYTE [3]: 6795.67 CELLS/uL
ABSOLUTE MONOCYTE [3]: 121.33 CELLS/uL
ABSOLUTE SEGMENTED NEUTROPHIL [3]: 433 CELLS/uL
BASOPHIL [3]: 0%
EOSINOPHIL [3]: 0.67%
ERYTHROCYTE COUNT [3]: 5.21 x10E6/uL
HEMATOCRIT [3]: 33.77%
LEUKOCYTE COUNT [3]: 7.4 x10E3/uL
LYMPHOCYTE [3]: 92%
MEAN CORPUSCULAR HEMOGLOBIN [3]: 24.63 pg
MEAN CORPUSCULAR HEMOGLOBIN CONCENTRATION [3]: 38 G/DL
MEAN CORPUSCULAR VOLUME [3]: 64.83 fL
MONOCYTE [3]: 1.67%
NEUTROPHIL [3]: 5.67%
NUCLEATED RED BLOOD CELLS [3]: 0 /100WBC
PLATELET COUNT [3]: 851.33 x10E3/uL
ALANINE AMINOTRANSFERASE [4]: 58.33 u/L
ALBUMIN [4]: 3.83 G/DL
ALKALINE PHOSPHATASE [4]: 272 u/L
ASPARTATE AMINOTRANSFERASE [4]: 99 u/L
BLOOD UREA NITROGEN [4]: 12.67 mg/dL
CARBON DIOXIDE [4]: 31.67 mmol/L
CHLORIDE [4]: 100 MEQ/L
CHOLESTEROL [4]: 60 mg/dL
CREATINE PHOSPHOKINASE [4]: 402 u/L
CREATININE [4]: 0.28 mg/dL
GLUCOSE [4]: 139.67 mg/dL
LACTATE DEHYDROGENASE [4]: 186.33 u/L
LIPASE [4]: 11 u/L
PHOSPHORUS [4]: 11.17 mg/dL
POTASSIUM [4]: 6.05 MEQ/L
SODIUM [4]: 143.73 MEQ/L
TOTAL BILIRUBIN [4]: 0.2 mg/dL
TOTAL PROTEIN [4]: 5.83 G/DL
URIC ACID [4]: 0.5 mg/dL
ABSOLUTE BASOPHIL (1500 mg/kg, 72 h, tissue Blood, dose level High, time 3 day): 0 CELLS/uL
